Data published in US6914045B2, “Glycopeptide antibiotics” (Wyeth Holdings Corporation, priority 2001, dated 2005).
In brackets after ≈: the same amount, converted by molar mass.

Columns and labels:
Test in all cases: in vitro antibacterial evaluation, MIC by broth dilution
Format in all cases: cell-based
Enterococcus sp. = settings: broth dilution, 18 hours at 35° C.
Procedure, shortened: (§1)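 MIC = lowest antibiotic concentration preventing visible growth; inoculum 5×10^5 CFU/mL; drug range 64-0.06 μg/mL; Muller-Hinton II […]; NCCLS M7-A2 guidance.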

Escherichia coli = settings: 18 hours at 35° C.
Procedure, shortened: as §1

Staphylococcus sp. = settings: broth dilution, 18 hours at 35° C.
Procedure, shortened: as §1

Streptococcus sp. = settings: broth dilution, 18 hours at 35° C.
Procedure, shortened: as §1

## N=C1NCC(C(O)C2NC(=O)C(Cc3ccc(OC4OC(CO)C(OC5OC6COC7(OC6C6OC8(OC56)C5CC6CC(C5)CC8C6)C5CC6CC(C5)CC7C6)C(O)C4O)cc3)NC(=O)C(CC3CCCCC3)NC(=O)CNC(=O)C(CO)NC(=O)C(C(O)C3CNC(=N)N3C3OC(CO)C(O)C(O)C3O)NC2=O)N1 (centres unmarked) [Example 106b, Cyclo[3-cyclohexylalanyl-O-[4-O-[2,3:4,6-di-O-(2-adamantylidene)hexopyranosyl]hexopyranosyl]tyrosyl-3-(2-iminoimidazolidin-4-yl)seryl-3-(3-hexopyranosyl-2-iminoimidazolidin-4-yl)-serylserylglycyl]]
Enterococcus sp.; Enterococcus avium (GC 4558)
  MIC Enterococcus avium (GC 4558): 4 µg/mL (≈ 2.58 µM)
Enterococcus sp.; Enterococcus faecalis (ATCC 29212)
  MIC Enterococcus faecalis (ATCC 29212): 8 µg/mL (≈ 5.16 µM)
Enterococcus sp.; Enterococcus faecalis (GC 2242)
  MIC Enterococcus faecalis (GC 2242): 8 µg/mL (≈ 5.16 µM)
Enterococcus sp.; Enterococcus faecalis (GC 2691)
  MIC Enterococcus faecalis (GC 2691): 16 µg/mL (≈ 10.3 µM)
Enterococcus sp.; Enterococcus faecalis (GC 3059)
  MIC Enterococcus faecalis (GC 3059): 16 µg/mL (≈ 10.3 µM)
Enterococcus sp.; Enterococcus faecalis (GC 4552)
  MIC Enterococcus faecalis (GC 4552): 8 µg/mL (≈ 5.16 µM)
Enterococcus sp.; Enterococcus faecalis (GC 4553)
  MIC Enterococcus faecalis (GC 4553): 8 µg/mL (≈ 5.16 µM)
Enterococcus sp.; Enterococcus faecalis (GC 4554)
  MIC Enterococcus faecalis (GC 4554): 16 µg/mL (≈ 10.3 µM)
Enterococcus sp.; Enterococcus faecalis (GC 6189)
  MIC Enterococcus faecalis (GC 6189): 8 µg/mL (≈ 5.16 µM)
Enterococcus sp.; Enterococcus faecium (GC 2243)
  MIC Enterococcus faecium (GC 2243): 8 µg/mL (≈ 5.16 µM)
Enterococcus sp.; Enterococcus faecium (GC 4556)
  MIC Enterococcus faecium (GC 4556): 8 µg/mL (≈ 5.16 µM)
Enterococcus sp.; Enterococcus faecium (GC 4557)
  MIC Enterococcus faecium (GC 4557): 4 µg/mL (≈ 2.58 µM)
Enterococcus sp.; strain ATCC 29212
  MIC Enterococcus faecalis (ATCC 29212): 8 µg/mL (≈ 5.16 µM)
Enterococcus sp.; strain GC 2242
  MIC Enterococcus faecalis (GC 2242): 8 µg/mL (≈ 5.16 µM)
Enterococcus sp.; strain GC 2243
  MIC Enterococcus faecium (GC 2243): 8 µg/mL (≈ 5.16 µM)
Enterococcus sp.; strain GC 2691
  MIC Enterococcus faecalis (GC 2691): 16 µg/mL (≈ 10.3 µM)
Enterococcus sp.; strain GC 3059
  MIC Enterococcus faecalis (GC 3059): 16 µg/mL (≈ 10.3 µM)
Enterococcus sp.; strain GC 4552
  MIC Enterococcus faecalis (GC 4552): 8 µg/mL (≈ 5.16 µM)
Enterococcus sp.; strain GC 4553
  MIC Enterococcus faecalis (GC 4553): 8 µg/mL (≈ 5.16 µM)
Enterococcus sp.; strain GC 4554
  MIC Enterococcus faecalis (GC 4554): 16 µg/mL (≈ 10.3 µM)
Enterococcus sp.; strain GC 4556
  MIC Enterococcus faecium (GC 4556): 8 µg/mL (≈ 5.16 µM)
Enterococcus sp.; strain GC 4557
  MIC Enterococcus faecium (GC 4557): 4 µg/mL (≈ 2.58 µM)
Enterococcus sp.; strain GC 4558
  MIC Enterococcus avium (GC 4558): 4 µg/mL (≈ 2.58 µM)
Enterococcus sp.; strain GC 6189
  MIC Enterococcus faecalis (GC 6189): 8 µg/mL (≈ 5.16 µM)
Escherichia coli; strain ATCC 25922
  MIC Escherichia coli (ATCC 25922): 64 µg/mL (≈ 41.2 µM)
Escherichia coli; strain GC 4559
  MIC Escherichia coli (GC 4559): 32 µg/mL (≈ 20.6 µM)
Escherichia coli; strain GC 4560
  MIC Escherichia coli (GC 4560): 8 µg/mL (≈ 5.16 µM)
Staphylococcus sp.
  MIC Coagulase Negative Staphylococcus (GC 4547): 8 µg/mL (≈ 5.16 µM)
  MIC Coagulase Negative Staphylococcus (GC 4548): 4 µg/mL (≈ 2.58 µM)
  MIC Coagulase Negative Staphylococcus (GC 4549): 4 µg/mL (≈ 2.58 µM)
  MIC Coagulase Negative Staphylococcus (GC 4551): 8 µg/mL (≈ 5.16 µM)
  MIC Staphylococcus aureus (ATCC 29213): 8 µg/mL (≈ 5.16 µM)
  MIC Staphylococcus aureus (GC 1131): 8 µg/mL (≈ 5.16 µM)
  MIC Staphylococcus aureus (GC 3051): 8 µg/mL (≈ 5.16 µM)
  MIC Staphylococcus aureus (GC 3053): 8 µg/mL (≈ 5.16 µM)
  MIC Staphylococcus aureus (GC 4541): 16 µg/mL (≈ 10.3 µM)
  MIC Staphylococcus aureus (GC 4542): 8 µg/mL (≈ 5.16 µM)
  MIC Staphylococcus aureus (GC 4544): 16 µg/mL (≈ 10.3 µM)
  MIC Staphylococcus aureus (GC 4545): 8 µg/mL (≈ 5.16 µM)
  MIC Staphylococcus aureus-SMITH (GC 4543): 8 µg/mL (≈ 5.16 µM)
  MIC Staphylococcus haemolyticus (GC 4546): 4 µg/mL (≈ 2.58 µM)
Staphylococcus sp.; strain GC 4546
  MIC Staphylococcus haemolyticus (GC 4546): 4 µg/mL (≈ 2.58 µM)
Staphylococcus sp.; strain GC 4547
  MIC Coagulase Negative Staphylococcus (GC 4547): 8 µg/mL (≈ 5.16 µM)
Staphylococcus sp.; strain GC 4548
  MIC Coagulase Negative Staphylococcus (GC 4548): 4 µg/mL (≈ 2.58 µM)
Staphylococcus sp.; strain GC 4549
  MIC Coagulase Negative Staphylococcus (GC 4549): 4 µg/mL (≈ 2.58 µM)
Staphylococcus sp.; strain GC 4551
  MIC Coagulase Negative Staphylococcus (GC 4551): 8 µg/mL (≈ 5.16 µM)
Staphylococcus sp.; strain SMITH GC 4543
  MIC Staphylococcus aureus-SMITH (GC 4543): 8 µg/mL (≈ 5.16 µM)
Staphylococcus sp.; strain ATCC 29213
  MIC Staphylococcus aureus (ATCC 29213): 8 µg/mL (≈ 5.16 µM)
Staphylococcus sp.; strain GC 1131
  MIC Staphylococcus aureus (GC 1131): 8 µg/mL (≈ 5.16 µM)
Staphylococcus sp.; strain GC 3051
  MIC Staphylococcus aureus (GC 3051): 8 µg/mL (≈ 5.16 µM)
Staphylococcus sp.; strain GC 3053
  MIC Staphylococcus aureus (GC 3053): 8 µg/mL (≈ 5.16 µM)
Staphylococcus sp.; strain GC 4541
  MIC Staphylococcus aureus (GC 4541): 16 µg/mL (≈ 10.3 µM)
Staphylococcus sp.; strain GC 4542
  MIC Staphylococcus aureus (GC 4542): 8 µg/mL (≈ 5.16 µM)
Staphylococcus sp.; strain GC 4544
  MIC Staphylococcus aureus (GC 4544): 16 µg/mL (≈ 10.3 µM)
Staphylococcus sp.; strain GC 4545
  MIC Staphylococcus aureus (GC 4545): 8 µg/mL (≈ 5.16 µM)
Streptococcus sp.; Streptococcus agalactiae (GC 4564)
  MIC Streptococcus agalactiae (GC 4564): 0.5 µg/mL (≈ 0.322 µM)
Streptococcus sp.; Streptococcus pneumoniae (ATCC 6301)
  MIC Streptococcus pneumoniae (ATCC 6301): 0.5 µg/mL (≈ 0.322 µM)
Streptococcus sp.; Streptococcus pneumoniae (GC 1894)
  MIC Streptococcus pneumoniae (GC 1894): <0.12 µg/mL
Streptococcus sp.; Streptococcus pneumoniae (GC 4565)
  MIC Streptococcus pneumoniae (GC 4565): 0.5 µg/mL (≈ 0.322 µM)
Streptococcus sp.; Streptococcus pyogenes (GC 4563)
  MIC Streptococcus pyogenes (GC 4563): 0.5 µg/mL (≈ 0.322 µM)
Streptococcus sp.; strain ATCC 6301
  MIC Streptococcus pneumoniae (ATCC 6301): 0.5 µg/mL (≈ 0.322 µM)
Streptococcus sp.; strain GC 1894
  MIC Streptococcus pneumoniae (GC 1894): <0.12 µg/mL
Streptococcus sp.; strain GC 4563
  MIC Streptococcus pyogenes (GC 4563): 0.5 µg/mL (≈ 0.322 µM)
Streptococcus sp.; strain GC 4564
  MIC Streptococcus agalactiae (GC 4564): 0.5 µg/mL (≈ 0.322 µM)
Streptococcus sp.; strain GC 4565
  MIC Streptococcus pneumoniae (GC 4565): 0.5 µg/mL (≈ 0.322 µM)
